Experiments:
[1] = test system: MEPCE; assay: Western blot of MEPCE protein in NCI-H929 cells (FIG. 4); type: cell-based
Description: After treatment with a CDKI, cells were lysed in modified RIPA buffer containing 50 mM TRIS pH 7.4, 150 mM NaCl, 1 mM EDTA, 1% Brij-35, 0.1% deoxycholate, protease inhibitors (Roche Molecular Biochemicals, Mannheim, Germany). SDS-PAGE (4-12% gel) was used to resolve the proteins in the lysate. After electrophoresis, the proteins were electrotransferred onto a polyvinylidene fluoride microporous membrane and immunodetected using standard procedures. FIG. 4 is a Western blot of the multiple myeloma line NCI-H929, treated with CDKI(7) or DMSO and gene expression analyzed at certain time points during the treatment. […] Thus, the reduction in expression of genes in response to CDKI seen at the mRNA level by microarray is confirmed at the protein level by Western blotting.

[2] = test system: MEPCE; assay: Dog toxicology study, TaqMan mRNA in white blood cells after CDKI(7): MEPCE; type: in vivo
Description: As part of a dog toxicology study, CDKI(7) was administered to dogs. White blood cells were harvested and MEPCE, MYC and MCL1 gene expression was assessed as PD markers. mRNA levels of each of these PD markers were measured by TaqMan® at various time points after CDKI(7) treatment.
The study had three groups of three dogs each. Dogs in Group 1 (#101, #102, and #103) were treated with CDKI(7) at 0.5 mg/kg, dogs in Group 2 (#104, #105, and #106) were treated at 1 mg/kg CDKI(7) and dogs in Group 3 (#107, #108, and #109) were treated at 2 mg/kg CDKI(7). Samples were collected before treatment (0 hour), 3 hours, 7 hours and 24 hours after treatment for a total of 12 samples per group. Blood samples were received frozen in QIAGEN RNA protect® Animal Blood tubes (Cat. # 76554 QIAGEN-Valencia, Calif., USA). RNA samples were extracted using the QIAGEN RNeasy® Protect Animal Blood kit (Cat. # 73224). RNA samples were quantified using the RNA Quant-iT RNA® assay from Invitrogen (Cat. # Q32852 Invitrogen—Grand Island, N.Y., USA) and read on an Invitrogen Qubit fluorometer® (Cat. # Q32857). First strand cDNA synthesis was performed on 500 ng of RNA in a reaction volume of 20 μl using a High Capacity cDNA Reverse Transcription Kit® from Applied Biosystems (Cat. # 4368814 Applied Biosystems, Carlsbad, Calif., USA). The cDNA samples were then diluted to obtain a 10 ng cDNA input for the TaqMan® reaction. TaqMan® reactions were run in triplicates using a TaqMan® Gene Expression Master Mix from Applied Biosystems (Cat. # 4369016) on an ABI 7500® machine. The 18S rRNA level was used as an endogenous control for variations in cDNA input. The relative quantification method was used to analyze the data; this method uses one sample as a calibrator sample and express mRNA levels relative to that sample. The results were expressed as RQ values (Relative Quantification) with RQ Min and RQ Max values determining a 95% confidence interval for the real RQ value. The samples were grouped according to the dose and each group was treated as a separate experiment with one of the pre-dose samples used as a calibrator sample. The logarithm of the RQ values are plotted so that increases or decreases from the initial value can be more easily represented; on a logarithmic scale: a 10-fold increase or 10-fold decrease in RQ value are represented as +1 and −1 respectively.
The mRNA levels were determined by TaqMan® using the relative quantification method. The calibrator samples are dog #101 at 0 hour timepoint for the 0.5 mg/kg dose of CDKI(7), dog #104 at 0 hour timepoint for the 1 mg/kg dose and dog #107 at 0 hour timepoint for the CDKI(7) 2 mg/kg dose. The logarithm (base 10) of the RQ values is plotted with the error bars representing the 95% confidence interval. […] The amplitude and the duration of the down regulation are dose-dependent; at 0.5 mg/kg CDKI(7) the maximum down regulation is 3.2-fold at 3 hours, at 1 mg/kg CDKI(7) it is 5.2-fold at 7 hours and at 2 mg/kg it is 14-fold at 7 hours.

O=C(Nc1cc(-c2cccc(NCC3CCOCC3)n2)c(Cl)cn1)[C@@H]1CCCNC1 [CDKI(7)]
MEPCE protein expression at the 16 hour time point ([1]; NCI-H929, Western blot, 16 hour): very little to undetectable levels of protein expression | MEPCE protein expression over time ([1]; NCI-H929 multiple myeloma line, Western blot, versus DMSO): reduced over time | maximum down regulation of MEPCE mRNA ([2]; 0.5 mg/kg, at 3 hours): 3.2 fold | maximum down regulation of MEPCE mRNA ([2]; 1 mg/kg, at 7 hours): 5.2 fold | MEPCE mRNA levels at 24 hours ([2]; 2 mg/kg, one of the dogs (#109)): some degree of down regulation | maximum down regulation of MEPCE mRNA ([2]; 2 mg/kg, at 7 hours): 14 fold | MEPCE mRNA levels at 24 hours ([2]; 0.5 and 1 mg/kg): back to pre-treatment levels | MEPCE mRNA regulation ([2]; all three doses (0.5, 1, 2 mg/kg), FIG. 6): clear down regulation

Source: US20140005070A1, “MARKERS ASSOCIATED WITH CYCLIN-DEPENDENT KINASE INHIBITORS” (Novartis AG, priority 2011, published 2014)
